PubChem BioAssay AID248 (DTP/NCI, 2004)
Toxic doses and inconclusive results are not listed. Rule as the data show it: active = T/C of 150% or more; inactive = T/C below 125%.

System: L1210 leukemia ip in BDF1 mice, survival T/C
Assay: NCI In Vivo Anticancer Drug Screen. Data for tumor model L1210 Leukemia (intraperitoneal) in B6D2F1 (BDF1) mice
Settings: endpoint: mean survival time, higher = longer survival
Procedure, shortened: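 Transplanted-tumor mice were given test agent; controls received vehicle only. Survival readings from the two groups were divided (treated over control).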

[1] = dose: 100.0 mg/kg/injection, schedule: Q04DX003 (ip), vehicle: Klucel (hydroxypropylcellulose) (HPC)
[2] = dose: 200.0 mg/kg/injection, schedule: Q04DX003 (ip), vehicle: Klucel (hydroxypropylcellulose) (HPC)
[3] = dose: 400.0 mg/kg/injection, schedule: Q04DX003 (ip), vehicle: Klucel (hydroxypropylcellulose) (HPC)
[4] = dose: 200.0 mg/kg/injection, schedule: Q01DX001 (ip), vehicle: carboxymethylcellulose (CMC)

Measured: T/C

C[C@]12CC[C@@H]3c4ccc(O)cc4CC[C@H]3[C@@H]1CC[C@@H]2OC(=O)CCC1CCCC1
inactive: dose: 60.0 mg/kg/injection, schedule: Q04DX003 (sc), vehicle: steriod suspending solution 104 % of control | dose: 100.0 mg/kg/injection, schedule: Q01DX001 (sc), vehicle: steriod suspending solution 107 % of control | dose: 120.0 mg/kg/injection, schedule: Q04DX003 (sc), vehicle: steriod suspending solution 104 % of control | dose: 200.0 mg/kg/injection, schedule: Q01DX001 (sc), vehicle: steriod suspending solution 113 % of control | dose: 240.0 mg/kg/injection, schedule: Q04DX003 (sc), vehicle: steriod suspending solution 100 % of control | dose: 400.0 mg/kg/injection, schedule: Q01DX001 (sc), vehicle: steriod suspending solution 107 % of control

COc1ccc(-c2nc(SCc3ccccc3)[nH]c(=O)c2CCO)cc1
inactive: [1] 95 % of control | [2] 88 % of control | [3] 93 % of control

Cc1cc(O)c(C)c(C)c1N=Nc1ccccc1
inactive: dose: 100.0 mg/kg/injection, schedule: Q01DX009 (ip), vehicle: saline with Tween-80 101 % of control | dose: 100.0 mg/kg/injection, schedule: Q04DX002 (ip), vehicle: saline with Tween-80 108 % of control | dose: 200.0 mg/kg/injection, schedule: Q01DX009 (ip), vehicle: saline with Tween-80 89 % of control | dose: 200.0 mg/kg/injection, schedule: Q04DX002 (ip), vehicle: saline with Tween-80 90 % of control | dose: 400.0 mg/kg/injection, schedule: Q01DX009 (ip), vehicle: saline with Tween-80 95 % of control | dose: 400.0 mg/kg/injection, schedule: Q04DX002 (ip), vehicle: saline with Tween-80 93 % of control

Cc1ccc(S(=O)(=O)NN)cc1
inactive: dose: 100.0 mg/kg/injection, schedule: Q04DX003 (ip), vehicle: saline with Tween-80 97 % of control | dose: 200.0 mg/kg/injection, schedule: Q04DX003 (ip), vehicle: saline with Tween-80 101 % of control | dose: 400.0 mg/kg/injection, schedule: Q04DX003 (ip), vehicle: saline with Tween-80 88 % of control

Cc1cc(OCCCC(=O)O)ccc1Cl
inactive: dose: 50.0 mg/kg/injection, schedule: Q01DX001 (ip), vehicle: saline 104 % of control | dose: 100.0 mg/kg/injection, schedule: Q01DX001 (ip), vehicle: saline 104 % of control | dose: 200.0 mg/kg/injection, schedule: Q01DX001 (ip), vehicle: saline 102 % of control | dose: 400.0 mg/kg/injection, schedule: Q01DX001 (ip), vehicle: saline 96 % of control

O/N=C1\CN2CCC1CC2
inactive: dose: 18.75 mg/kg/injection, schedule: Q04DX003 (ip), vehicle: saline 104 % of control | dose: 25.0 mg/kg/injection, schedule: Q01DX001 (ip), vehicle: saline with Tween-80 97 % of control | dose: 37.5 mg/kg/injection, schedule: Q04DX003 (ip), vehicle: saline 98 % of control | dose: 50.0 mg/kg/injection, schedule: Q01DX001 (ip), vehicle: saline with Tween-80 97 % of control | dose: 75.0 mg/kg/injection, schedule: Q04DX003 (ip), vehicle: saline 102 % of control | dose: 100.0 mg/kg/injection, schedule: Q01DX001 (ip), vehicle: saline with Tween-80 102 % of control

CCCCCC(N)CC(=O)O (stereo unspecified)
inactive: dose: 100.0 mg/kg/injection, schedule: Q01DX009 (ip), vehicle: saline 105 % of control | dose: 100.0 mg/kg/injection, schedule: Q04DX003 (ip), vehicle: saline 102 % of control | dose: 200.0 mg/kg/injection, schedule: Q01DX009 (ip), vehicle: saline 96 % of control | dose: 200.0 mg/kg/injection, schedule: Q04DX003 (ip), vehicle: saline 96 % of control | dose: 400.0 mg/kg/injection, schedule: Q01DX009 (ip), vehicle: saline 96 % of control | dose: 400.0 mg/kg/injection, schedule: Q04DX003 (ip), vehicle: saline 105 % of control

CS(=O)(=O)Nc1ccccc1OS(C)(=O)=O
inactive: dose: 75.0 mg/kg/injection, schedule: Q01DX001 (ip), vehicle: saline 102 % of control | dose: 150.0 mg/kg/injection, schedule: Q01DX001 (ip), vehicle: saline 106 % of control | dose: 300.0 mg/kg/injection, schedule: Q01DX001 (ip), vehicle: saline 106 % of control

CCP(CC)c1ccccc1
inactive: dose: 100.0 mg/kg/injection, schedule: Q01DX009 (sc), vehicle: olive oil, sesame oil, peanut oil 100 % of control | dose: 100.0 mg/kg/injection, schedule: Q04DX003 (sc), vehicle: olive oil, sesame oil, peanut oil 98 % of control | dose: 200.0 mg/kg/injection, schedule: Q01DX009 (sc), vehicle: olive oil, sesame oil, peanut oil 102 % of control | dose: 200.0 mg/kg/injection, schedule: Q04DX003 (sc), vehicle: olive oil, sesame oil, peanut oil 96 % of control | dose: 400.0 mg/kg/injection, schedule: Q01DX009 (sc), vehicle: olive oil, sesame oil, peanut oil 107 % of control | dose: 400.0 mg/kg/injection, schedule: Q04DX003 (sc), vehicle: olive oil, sesame oil, peanut oil 98 % of control

Cc1c2ccc(=O)cc-2oc2cc(O)ccc12
inactive: [1] 92 % of control | [2] 94 % of control | [3] 87 % of control

COc1ccc2nc3cc(Cl)ccc3c(NCC3(c4ccccc4)CCN(C)CC3)c2c1
inactive: dose: 12.5 mg/kg/injection, schedule: Q04DX003 (ip), vehicle: saline 97 % of control | dose: 25.0 mg/kg/injection, schedule: Q04DX003 (ip), vehicle: saline 90 % of control

O=C1CCc2cc(Cl)ccc2O1
inactive: dose: 50.0 mg/kg/injection, schedule: Q01DX001 (ip), vehicle: carboxymethylcellulose (CMC) 103 % of control | dose: 100.0 mg/kg/injection, schedule: Q01DX001 (ip), vehicle: carboxymethylcellulose (CMC) 100 % of control | [4] 103 % of control | dose: 400.0 mg/kg/injection, schedule: Q01DX001 (ip), vehicle: carboxymethylcellulose (CMC) 94 % of control

CC1(C)C2CCC1(C)C(NC(=O)N(CCCl)N=O)C2 (stereo unspecified)
inactive: dose: 4.0 mg/kg/injection, schedule: Q01DX001 (ip), vehicle: carboxymethylcellulose (CMC) 98 % of control | dose: 9.0 mg/kg/injection, schedule: Q01DX001 (ip), vehicle: carboxymethylcellulose (CMC) 96 % of control | dose: 18.0 mg/kg/injection, schedule: Q01DX001 (ip), vehicle: carboxymethylcellulose (CMC) 102 % of control | dose: 37.0 mg/kg/injection, schedule: Q01DX001 (ip), vehicle: carboxymethylcellulose (CMC) 112 % of control | dose: 75.0 mg/kg/injection, schedule: Q01DX001 (ip), vehicle: carboxymethylcellulose (CMC) 104 % of control | dose: 150.0 mg/kg/injection, schedule: Q01DX001 (ip), vehicle: carboxymethylcellulose (CMC) 106 % of control | [4] 115 % of control | dose: 500.0 mg/kg/injection, schedule: Q01DX001 (ip), vehicle: carboxymethylcellulose (CMC) 115 % of control | dose: 1000.0 mg/kg/injection, schedule: Q01DX001 (ip), vehicle: carboxymethylcellulose (CMC) 121 % of control
